The test system of assay [1] is T1, BCR::ABL1 (Ba/F3 isogenic cells).
T1 construct: BCR::ABL1 fusion oncoprotein, one polypeptide (BCR N-terminal, ABL1 C-terminal); expressed in murine Ba/F3 cells by electroporation; with Breakpoint cluster region protein
As to the kind of experiment: Ba/F3 MTS viability assay. The class given is cell-based. The note with it: growth of BCR::ABL1-dependent Ba/F3 cells; parental Ba/F3 + IL-3 as control. A general note: Tetrazolium assays rely on reduction of a dye to a coloured formazan, in cell work by metabolically active cells.

The test system is the same in assay [2]. As to the kind of experiment: Ba/F3 MTS viability assay. The class given is cell-based. The note with it: growth of BCR::ABL1-dependent Ba/F3 cells; stated gain.

One may read the IC50 as the concentration that gives 50% inhibition.

Turning to `Cc1ccc(-n2nc(C(C)(C)C)cc2NC(=O)NCc2cc(F)ccc2Oc2ccc3c(cnn3CCO)c2)cc1` [pexmetinib], the IC50 is on record as 411 nM in assay [1] and 2099 nM in assay [2].
